In test [1] the test system is Botryotinia fuckeliana (Botrytis cinerea). The experiment in a line: Botryotinia fuckeliana (Botrytis cinerea) / liquid culture (gray mould). The format is cell-based. To be noted: Vogels broth, 96-well plate, 24° C., 3-4 days after application, read-out: control of Botryotinia fuckeliana (inhibition of growth, photometric).
Test [2] has as its system Mycosphaerella arachidis (Cercospora arachidicola). The experiment in a line: Mycosphaerella arachidis (Cercospora arachidicola) / liquid culture (early leaf spot). The format is cell-based. To be noted: PDB potato dextrose broth, 96-well plate, 24° C., 4-5 days after application, read-out: control of Mycosphaerella arachidis (inhibition of growth, photometric).
Test [3] concerns Mycosphaerella graminicola (Septoria tritici). The experiment in a line: Mycosphaerella graminicola (Septoria tritici) / liquid culture (Septoria blotch). It is filed as cell-based. To be noted: Zymoseptoria tritici, PDB potato dextrose broth, 96-well plate, 24° C., 4-5 days after application, read-out: control of Mycosphaerella graminicola (inhibition of growth, photometric).
The test system of test [4] is Glomerella lagenarium (Colletotrichum lagenarium). The experiment in a line: Glomerella lagenarium (Colletotrichum lagenarium) / liquid culture (anthracnose). The format is cell-based. To be noted: Colletotrichum orbiculare, PDB potato dextrose broth, 96-well plate, 24° C., 3-4 days after application, read-out: control of Glomerella lagenarium (inhibition of growth, photometric).

For test [5], the system named is Monographella nivalis (Microdochium nivale). The experiment in a line: Monographella nivalis (Microdochium nivale) / liquid culture (foot rot cereals). It is filed as cell-based. To be noted: PDB potato dextrose broth, 96-well plate, 24° C., 4-5 days after application, read-out: control of Monographella nivalis (inhibition of growth, photometric). On the procedure:
Monographella nivalis (Microdochium nivale)/Liquid Culture (Foot Rot Cereals): Conidia of the fungus from cryogenic storage were directly mixed into nutrient broth (PDB potato dextrose broth). After placing a DMSO solution of test compound into a 96-well microtiter plate at an application rate of 200 ppm, the nutrient broth containing the fungal spores was added. The test plates were incubated at 24° C. and the inhibition of growth was determined photometrically 4-5 days after application. […].103

Another test concerns Gaeumannomyces graminis. The experiment in a line: Gaeumannomyces graminis / liquid culture (take-all of cereals). It is filed as cell-based. To be noted: liquid culture of mycelial fragments, PDB potato dextrose broth, 96-well plate, 24° C., 4-5 days after application, read-out: control of Gaeumannomyces graminis (inhibition of growth, photometric).
In test [6] the test system is Phaeosphaeria nodorum (Septoria nodorum). The experiment in a line: Phaeosphaeria nodorum (Septoria nodorum) / wheat / leaf disc preventative (glume blotch). The format is in vivo. To be noted: Parastagonospora nodorum, foliar, wheat cv Kanzler leaf segments, inoculated 2 days after application, assessed 5-7 days after application, read-out: control of Phaeosphaeria nodorum (percent disease control compared to untreated).

The next test deals with Pyrenophora teres. The experiment in a line: Pyrenophora teres / barley / leaf disc preventative (net blotch). The format is in vivo. To be noted: foliar, barley cv Hasso leaf segments, inoculated two days after application, assessed 5-7 days after application, read-out: control of Pyrenophora teres (disease control compared to untreated).

The inhibition is the share of the control response that was lost under treatment.

With `CO/N=C(\C)c1cccc(CCCO/N=C(\C)c2ccccn2)n1` [P.17], the inhibition at 200 ppm in test [1] was ≥ 80%.
`CO/N=C(\C)c1cccc(CCCO/N=C(\C)c2cccc(C#N)n2)n1` [P.50]: the inhibition at 200 ppm in test [1], in test [2] and in test [3] was ≥ 80% in each case.
Consider `CO/N=C(\C)c1cccc(CCCO/N=C2\CCCc3c2nc2ccccc2c3-c2ccccc2)n1` [P.99], for which the inhibition at 200 ppm in test [1], in test [4], in test [2], in test [3] and in test [5] was ≥ 80% in each case.
As to `CO/N=C(\C)c1cccc(CCCO/N=C(\c2ccccc2)c2ccccn2)n1` [P.53], the inhibition at 200 ppm in the test on Gaeumannomyces graminis is ≥ 80%.
Consider `CO/N=C/c1cccc(CCCO/N=C(\C)c2cccc(C)n2)n1` [P.21], for which the inhibition at 200 ppm in test [1] is ≥ 80%.
For the molecule `CO/N=C(\C)c1cccc(CCCO/N=C2\CCCc3cnc(C)nc32)n1` [P.60, 2-Methyl-6,7-dihydro-5H-quinazolin-8-one O-[3-(6-(1-((E)-methoxyimino)-ethyl)-pyridin-2-yl)-propyl]-oxime], the inhibition at 200 ppm in test [2] is ≥ 80%.
As for `CC/C(=N\OCCCc1cccc(/C(C)=N/OC)n1)c1ccccn1` [P.54], the inhibition at 200 ppm with Gaeumannomyces graminis was ≥ 80%.
Regarding `CO/N=C(\C)c1cccc(CCCON=C(CCN(C)C)c2cccc(Br)n2)n1` [P.108], the inhibition at 200 ppm in test [2] was ≥ 80%.
On to `CO/N=C(\C)c1cccc(CCCO/N=C2\COCc3c2nc2ccccc2c3C)n1` [P.89], for which the inhibition at 200 ppm in test [1], in test [2] and in test [3] was ≥ 80% throughout.
As for `CO/N=C(\C)c1cccc(CCCO/N=C2\CCCc3cncnc32)n1` [P.65], the inhibition at 200 ppm in test [1] is ≥ 80%.
As for `CO/N=C(\C)c1cccc(CCCON=C(c2ccc(-n3cccc3)c(C)c2)c2ccccn2)n1` [P.107], the inhibition at 200 ppm in test [2] is ≥ 80%.
On the same count and under the same terms, next, `C=CCOc1ccc(C)nc1/C=N/OCCCc1cccc(/C(C)=N/OC)n1` [P.49]: ≥ 80%.
For `CO/N=C(\C)c1cccc(CCCO/N=C2\CCCc3cnc(-c4ccccc4)nc32)n1` [P.61, 2-Phenyl-6,7-dihydro-5H-quinazolin-8-one O-[3-(6-(1-((E)-methoxyimino)-ethyl)-pyridin-2-yl)-propyl]-oxime], the pest or weed control at 200 ppm in test [6] is ≥ 80%. In addition, the inhibition at 200 ppm (in test [1]; in test [2]; in test [3]; in the test on Gaeumannomyces graminis) was ≥ 80% each time.
With `CO/N=C(\C)c1cccc(CCCO/N=C(\C)c2cc(C#N)ccn2)n1` [P.37], the inhibition at 200 ppm in the test on Gaeumannomyces graminis was ≥ 80%.
As for `CO/N=C(\C)c1cccc(CCCO/N=C(\C)c2nc(OC)cc(OC)n2)n1` [P.66], the inhibition at 200 ppm in test [1] and in test [2] was ≥ 80% throughout.
On to `CO/N=C(\C)c1cccc(CCCO/N=C(\C)c2cccc(CCCO)n2)n1` [P.77], for which the inhibition at 200 ppm in test [1], in test [2] and in test [3] was ≥ 80% each time.
Take `CO/N=C(\C)c1cccc(CCCO/N=C(\C)c2cc(C)c3ccccc3n2)n1` [P.71]: the inhibition at 200 ppm in test [1] was ≥ 80%.
In the case of `CO/N=C(\C)c1cccc(CCCO/N=C(\C)c2cccc(CCCOCc3ccccc3)n2)n1` [P.75], the inhibition at 200 ppm in test [1], in test [2] and in test [3] was ≥ 80% in each case.
`CO/N=C(\C)c1cccc(CCCO/N=C(\C)c2cccc(C#CC(C)(C)C)n2)n1` [P.79]: the inhibition at 200 ppm in test [1] and in test [2] was ≥ 80% in each case.
On to `C=C(CCO/N=C(\C)c1cccc(C)n1)c1cccc(/C(C)=N/OC)n1` [P.05, (E)-1-(6-{1-methylene-3-[1-(6-methyl-pyridin-2-yl)-eth-(E)-ylideneaminooxy]-propyl}-pyridin-2-yl)-ethanone O-methyl-oxime], for which the inhibition at 200 ppm in test [3] and in test [5] was ≥ 80% in each case.
On to `CO/N=C(\C)c1cccc(CCCO/N=C2\CCCc3cnc(-c4cccc(C)n4)nc32)n1` [P.64], for which the inhibition at 200 ppm in test [1] is ≥ 80%.
`CO/N=C(\C)c1cccc(CCCON=C(C)c2ccnc(-c3cccc(C)n3)n2)n1` (single isomer, unassigned) [P.63A]: the pest or weed control at 200 ppm in test [6] is ≥ 80%. Moreover, the inhibition at 200 ppm in test [4] and in test [3] was ≥ 80% throughout.
`CO/N=C(\C)c1cccc(CCCO/N=C/c2cccc(Oc3ccccc3)n2)n1` [P.39]: the inhibition at 200 ppm in test [1], in test [2] and in test [3] was ≥ 80% in each case.
Take `CCCCc1c2c(nc3ccc(Cl)cc13)/C(=N/OCCCc1cccc(/C(C)=N/OC)n1)CCC2` [P.85]: the inhibition at 200 ppm in test [1] and in test [3] was ≥ 80% each time.
Turning to `C/C(=N\OCCCc1cccc(/C(C)=N/O)n1)c1cccc(C)n1` [P.11], the inhibition at 200 ppm in test [1] and in test [3] was ≥ 80% throughout.
Take `CO/N=C(\C)c1cccc(CCCO/N=C2\CCCc3c2nc2cnccc2c3C)n1` [P.80]: the inhibition at 200 ppm in test [1], in test [2], in test [3] and in test [5] was ≥ 80% throughout.
For the molecule `CO/N=C(\C)c1cccc(CCCO/N=C(\C)c2cccc(-c3cc(C)ccc3C)n2)n1` [P.15], the pest or weed control at 200 ppm in the test on Pyrenophora teres is ≥ 80%. The inhibition at 200 ppm in test [1], in test [2] and in test [3] was ≥ 80% each time.
Consider `CO/N=C(\C)c1cccc(CCCO/N=C(\C)c2cccc(-c3ccccc3)n2)n1` [P.33], for which the inhibition at 200 ppm in test [1], in test [2] and in test [3] was ≥ 80% in each case.
As to `CCOc1cc(OCC)nc(/C(C)=N/OCCCc2cccc(/C(C)=N/OC)n2)n1` [P.67], the inhibition at 200 ppm in test [1], in test [2] and in test [3] was ≥ 80% in each case.
Consider `CO/N=C(\C)c1cccc(CCCO/N=C(\C)c2cc(C(C)(C)C)ccn2)n1` [P.45], for which the inhibition at 200 ppm in test [1], in test [2] and in test [3] was ≥ 80% throughout.
Take `CO/N=C(\C)c1cccc(CCCO/N=C(\C)c2cccc(C#CCO)n2)n1` [P.78]: the inhibition at 200 ppm in test [2], in test [3] and in test [5] was ≥ 80% each time.
For `C#Cc1cccc(/C(C)=N/OCCCc2cccc(/C(C)=N/OC)n2)n1` [P.18], the inhibition at 200 ppm in test [1] and in test [2] was ≥ 80% in each case.
Take `CO/N=C(\C)c1cccc(CCCO/N=C2\CCCc3c2nc2c(C)cccc2c3C)n1` [P.90]: the inhibition at 200 ppm in test [1], in test [4], in test [2] and in test [3] was ≥ 80% each time.
As for `CO/N=C(\C)c1cccc(CCCO/N=C/c2cccc(C)n2)n1` [P.38], the inhibition at 200 ppm in test [1], in test [2], in test [3] and in test [5] was ≥ 80% each time.
Regarding `CO/N=C(\C)c1cccc(CCCON=C(C)c2ccnc(-c3cccc(C)n3)n2)n1` (single isomer, unassigned) [P.63B], the inhibition at 200 ppm in test [1] was ≥ 80%.
As for `CO/N=C(\C)c1cccc(CCCO/N=C(\C)c2ccc3ccccc3n2)n1` [P.34], the inhibition at 200 ppm in test [1] and in test [3] was ≥ 80% throughout.
For the molecule `CCOC(=O)c1cc(C)cc(/C(C)=N/OCCCc2cccc(/C(C)=N/OC)n2)n1` [P.47], the inhibition at 200 ppm in test [1], in test [2] and in test [3] was ≥ 80% each time.
As to `CO/N=C(\C)c1cccc(CCCO/N=C(\C)c2cccc(C3CC3)n2)n1` [P.20], the pest or weed control at 200 ppm (in test [6]; with Pyrenophora teres) was ≥ 80% each time. For the same molecule, the inhibition at 200 ppm in test [1], in test [2] and in test [3] was ≥ 80% in each case.
With `CO/N=C(\C)c1cccc(CCCO/N=C(\C)c2cccc(C(OC)OC)n2)n1` [P.29], the inhibition at 200 ppm in test [1], in test [2] and in test [3] was ≥ 80% each time.
`CO/N=C(\C)c1cccc(CCCON=C(CC#N)c2ccccn2)n1` [P.105]: the inhibition at 200 ppm in the test on Gaeumannomyces graminis was ≥ 80%.
Regarding `CO/N=C(\C)c1cccc(CCCO/N=C(\c2ccccc2)c2nc(OC)cc(OC)n2)n1` [P.68], the inhibition at 200 ppm in test [2] and in test [3] was ≥ 80% in each case.
With `CO/N=C(\C)c1cccc(CCCO/N=C(\C)c2cccc(-c3ccccc3O)n2)n1` [P.16], in test [3], the inhibition at 200 ppm was ≥ 80%.

The values above are taken from US20140309244A1, “NOVEL MICROBIOCIDES” (SYNGENTA PARTICIPATIONS AG, priority 2010, published 2014).
